The source of these data is patent US4547517A, “Microbicidal N-sulphenylated hydantoins” (Bayer Aktiengesellschaft, priority 1983, dated 1985).

Molecules are shown by their SMILES. Values after ≈ are worked out from the molar mass of the structure shown.

The MIC is the least concentration at which growth counts as inhibited.

For one assay, the system named is Fusarium nivale. Kind of assay: Fusarium nivale test (rye)/seed treatment (Example 30). The settings on record: seed treatment, 500 mg/kg of seed, about 3 weeks after sowing, not dressed 12.8. Type of assay: in vivo, Fusarium nivale (on rye). The procedure:
The active compounds are used as dry dressings. These are prepared by extending the particular active compound with a ground mineral to give a finely pulverulent mixture, which ensures uniform distribution on the seed surface. To apply the dressing, the infected seed is shaken with the dressing in a closed glass flask for 3 minutes. 2 batches of 100 grains of the rye are sown 1 cm deep in standard soil and are cultivated in a greenhouse at a temperature of about 10° C. and a relative atmospheric humidity of about 95%, in seedboxes which are exposed to light for 15 hours daily. About 3 weeks after sowing, the plants are evaluated for symptoms of snow mould.

Assay [1] deals with Erysiphe graminis f.sp. hordei. Kind of assay: Erysiphe test (barley)/protective (Example 29). The following applies: protective, active compound concentration in spray liquor 0.025 % by weight, 7 days after inoculation. Type of assay: in vivo, Erysiphe graminis f.sp. hordei (on barley). The procedure:
Solvent: 100 parts by weight of dimethylformamide Emulsifier: 0.25 part by weight of alkylaryl polyglycol ether To produce a suitable preparation of active compound, 1 part by weight of active compound is mixed with the stated amounts of solvent and emulsifier, and the concentrate is diluted with water to the desired concentration. To test for protective activity, young plants are sprayed with the preparation of active compound until dew-moist. After the spray coating has dried on, the plants are dusted with spores of Erysiphe graminis f.sp. hordei. The plants are placed in a greenhouse at a temperature of about 20° C. and a relative atmospheric humidity of about 80%, in order to promote the development of powdery mildew pustules. Evaluation is carried out 7 days after the inoculation.

For a further assay, the system named is Staphylococcus aureus. Kind of assay: Action against bacteria, MIC in bouillon agar (Example 27). It counts as cell-based. The settings on record: 336 h, 28° C., 2 weeks. The procedure: The active compounds listed in Table II are added in concentrations of 1 to 5000 ppm to an agar containing bouillon as the nutrient medium. The nutrient medium is then infected with Staphylococcus aureus and the infected medium is kept at 28° C. and 60 to 70% relative atmospheric humidity for 2 weeks. The MIC is the lowest concentration of active compound at which no growth at all of the species of microbe used takes place.

The test system of another assay is Polyporus versicolor. Kind of assay: MIC against fungi in beer wort/peptone agar (Example 26). It counts as cell-based. The following applies: Trametes versicolor, 336 h, 28° C., 2 weeks. The protocol: (§1) Active compounds according to the invention are added in concentration of 0.1 mg/liter to 5,000 mg/liter to an agar prepared from beer wort and peptone. After storage at 28° C. and 60 to 70% relative atmospheric humidity for 2 weeks, the MIC is determined. The MIC is the lowest concentration of active compound at which no growth at all of the species of microbe used takes place; it is shown in the Table which follows.

The next assay deals with Alternaria tenuis. The description is as above. The settings on record: Alternaria alternata, 336 h, 28° C., 2 weeks. Type of assay: cell-based. The procedure:
as §1

A further assay concerns Aureobasidium pullulans. Described as above. It counts as cell-based. The following applies: 336 h, 28° C., 2 weeks. The protocol:
as §1

In the next assay the test system is Aspergillus niger. The assay is described as above. Type of assay: cell-based. The settings on record: 336 h, 28° C., 2 weeks. The protocol: as §1
In another assay the test system is Lentinus tigrinus. The assay is described as above. The following applies: 336 h, 28° C., 2 weeks. It counts as cell-based. The procedure:
as §1

Another assay deals with Coniophora cerebella. The description is as above. The following applies: 336 h, 28° C., 2 weeks. Type of assay: cell-based. The protocol: as §1
A further assay deals with Penicillium glaucum. The description is as above. The settings on record: 336 h, 28° C., 2 weeks. Type of assay: cell-based. The protocol:
as §1

The next assay deals with Chaetomium globosum. The assay is described as above. The settings on record: 336 h, 28° C., 2 weeks. It counts as cell-based. The procedure:
as §1

The next assay has as its system Sclerophoma pityophila. The assay is described as above. It counts as cell-based. The following applies: Sydowia polyspora, 336 h, 28° C., 2 weeks. The protocol:
as §1

The next assay relates to slime organisms. Kind of assay: Action against slime organisms, MIC in Allens nutrient solution (Example 28). Type of assay: cell-based. The settings on record: 504 h, room temperature, 3 weeks. The procedure:
The compounds according to Examples 3, 5 and 10 are each used, dissolved in a little acetone, in concentrations of 0.1 to 100 mg/liter in Allens nutrient solution (Arch. Mikrobiol. 17, 34-53 (1952)), which contains, in 4 liters of sterile water, 0.2 g of ammonium chloride, 4.0 g of sodium nitrate, 1.0 g of dipotassium hydrogen phosphate, 0.2 g of calcium chloride, 2.05 g of magnesium sulphate, 0.02 g of iron chloride and 1% of caprolactam. Shortly beforehand, the nutrient solution is infected with slime organisms (about 10^6 germs/ml), which have been isolated from spinning water circulations used in the manufacture of polyamide. Nutrient solutions which contain the minimum inhibitory concentration (MIC) or higher concentrations of active compound are still completely clear after culture at room temperature for 3 weeks, that is to say the marked multiplication of the microbes and formation of slime noticeable after 3 to 4 days in nutrient solutions containing no active compound are absent.

The subject of the next assay is Pyricularia oryzae. Type of assay: in vivo, Pyricularia oryzae (on rice). The settings on record: rice, protective; active compound concentration 0.025 %; 4 days after inoculation.

Turning to `CN1C(=O)CN(SC(F)(Cl)Cl)C1=O`, in the assay with Fusarium nivale, the “Diseased plants in % of the total plants emerged” value is reported as 0.0 % of the total plants emerged.
`O=C1C2CC=CCC2C(=O)N1SC(Cl)(Cl)Cl` (stereo not drawn) [Captan, reference compound]: in the assay on Fusarium nivale, the “Diseased plants in % of the total plants emerged” value is 5.4 % of the total plants emerged. In addition, in assay [1], the “Disease infestation in % of the untreated control” value (“Disease infestation in %” below) is listed as 100 % of the untreated control.
Take `CN1C(=O)N(SC(F)(Cl)Cl)C(C)(C)C1=O` [Example 3]: the minimal inhibitory concentration (MIC) in the assay with Staphylococcus aureus is 50 µg/mL (≈ 182 µM); against Polyporus versicolor, 7.5 µg/mL (≈ 27.3 µM); in the assay on Alternaria tenuis, 1.5 µg/mL (≈ 5.45 µM); against Aureobasidium pullulans, 1 µg/mL (≈ 3.63 µM); in the assay on Aspergillus niger it was 10 µg/mL (≈ 36.3 µM); in the assay with Lentinus tigrinus, 1 µg/mL (≈ 3.63 µM). In addition, the minimum inhibitory concentration (MIC) against Coniophora cerebella is 1 µg/mL (≈ 3.63 µM); in the assay on Penicillium glaucum, 50 µg/mL (≈ 182 µM); against Chaetomium globosum, 1.5 µg/mL (≈ 5.45 µM); against Sclerophoma pityophila, 5 µg/mL (≈ 18.2 µM); with slime organisms, 3 µg/mL (≈ 10.9 µM).
Turning to `CCCCN1C(=O)CN(SC(F)(Cl)Cl)C1=O` [Example 5], the MIC amounted to 100 µg/mL (≈ 346 µM) against Staphylococcus aureus; 15 µg/mL (≈ 51.9 µM) with Polyporus versicolor; 2 µg/mL (≈ 6.92 µM) in the assay on Alternaria tenuis; 2 µg/mL (≈ 6.92 µM) against Aureobasidium pullulans; 50 µg/mL (≈ 173 µM) against Aspergillus niger; 0.75 µg/mL (≈ 2.59 µM) in the assay on Lentinus tigrinus. Moreover, the minimal inhibitory concentration (MIC) is 0.75 µg/mL (≈ 2.59 µM) with Coniophora cerebella; 100 µg/mL (≈ 346 µM) with Penicillium glaucum; 3.5 µg/mL (≈ 12.1 µM) in the assay with Chaetomium globosum; 5 µg/mL (≈ 17.3 µM) in the assay on Sclerophoma pityophila; 5 µg/mL (≈ 17.3 µM) with slime organisms.
Regarding `CC1(C)C(=O)N(C2CCCCC2)C(=O)N1SC(F)(Cl)Cl` [Example 10], the MIC against Staphylococcus aureus was 50 µg/mL (≈ 146 µM); in the assay with Polyporus versicolor it was 15 µg/mL (≈ 43.7 µM); in the assay on Alternaria tenuis it was 3.5 µg/mL (≈ 10.2 µM); in the assay with Aureobasidium pullulans it was 3.5 µg/mL (≈ 10.2 µM); against Aspergillus niger, 20 µg/mL (≈ 58.3 µM); against Lentinus tigrinus, 0.75 µg/mL (≈ 2.18 µM). The minimal inhibitory concentration (MIC) against Coniophora cerebella was found to be 0.75 µg/mL (≈ 2.18 µM); in the assay on Penicillium glaucum it was 75 µg/mL (≈ 218 µM); against Chaetomium globosum, 1.5 µg/mL (≈ 4.37 µM); with Sclerophoma pityophila, 5 µg/mL (≈ 14.6 µM); in the assay on slime organisms it was 100 µg/mL (≈ 291 µM).
For `O=C1CN(SC(F)(Cl)Cl)C(=O)N1C1CCCCC1` [drawing 16], the “Disease infestation in %” value in assay [1] is on record as 0.0 % of the untreated control.
As for `O=C1C2CC=CCC2C(=O)N1SC(Cl)(Cl)Cl` (stereo not drawn) [drawing 19, reference compound], in the assay with Pyricularia oryzae, the “Disease infestation in %” value is reported as 50 % of the untreated control.
Consider `O=C1CN(SC(F)(Cl)Cl)C(=O)N1C1CCCCC1` [drawing 20], for which the “Disease infestation in %” value in the assay with Pyricularia oryzae is listed as 13 % of the untreated control.
